Data taken from BindingDB's records for doi:10.7270/Q2TX3CTT (Broad Institute, 2010).

Each compound was assayed against Glycogen synthase kinase-3 beta (Homo sapiens, UniProt P49841) (assay: concentration-response blocking of human GSK3B – biochemical, luminescence, cell-free homogeneous, retest, dose response (AID 434954)).
Chain of Glycogen synthase kinase-3 beta (P49841 whole entry): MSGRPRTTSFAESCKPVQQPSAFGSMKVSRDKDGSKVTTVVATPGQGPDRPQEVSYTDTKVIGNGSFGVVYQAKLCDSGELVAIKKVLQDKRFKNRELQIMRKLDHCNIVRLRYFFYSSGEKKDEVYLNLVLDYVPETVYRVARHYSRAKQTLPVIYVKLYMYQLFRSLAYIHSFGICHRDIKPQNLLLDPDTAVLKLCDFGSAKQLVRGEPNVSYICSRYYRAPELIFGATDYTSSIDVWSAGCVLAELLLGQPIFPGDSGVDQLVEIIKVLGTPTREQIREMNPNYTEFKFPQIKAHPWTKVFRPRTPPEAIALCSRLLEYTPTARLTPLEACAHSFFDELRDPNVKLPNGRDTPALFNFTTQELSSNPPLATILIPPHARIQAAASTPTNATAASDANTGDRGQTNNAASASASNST
`Nc1nc(NCC2CCCO2)nc(NCC2CCCO2)c1[N+](=O)[O-]` (stereo not drawn) gave an EC50 of 12.2 µM.
For `c1ccc2c(c1)oc1c(NCCCn3ccnc3)ncnc12`, the EC50 was over 300 µM.
Work on `O=Cc1ccc(Oc2nc(Cl)ncc2F)cc1` [4-[(2-chloro-5-fluoro-4-pyrimidinyl)oxy]benzaldehyde] yielded an EC50 of over 300 µM.
`Cc1ccc2c(c1)Oc1ccc([N+](=O)[O-])cc1C(=O)N2` [7-methyl-2-nitrodibenzo[b,f][1,4]oxazepin-11(10H)-one] gave an EC50 of over 300 µM.
Work on `Nc1nonc1-n1nnc(C(=O)NN=Cc2ccccc2F)c1CN1CCOCC1` [1-(4-azanyl-1,2,5-oxadiazol-3-yl)-N-[(2-fluorophenyl)methylideneamino]-5-(morpholin-4-ylmethyl)-1,2,3-triazole-4-carboxamide] yielded an EC50 of 92.1 µM.
`Cc1ccc(NC(=O)CSCc2ccc(F)cc2)cc1` [MLS000701707] gave an EC50 of over 300 µM.
For `CCOc1ccc(N2C(=O)S/C(=C\c3cccn3C)C2=O)cc1` [MLS000580380], the EC50 was over 300 µM.
`O=C1c2ccccc2-c2onc3ccc(NCCCn4ccnc4)c1c23` [SMR000044769] was tested, and the EC50 was 167 µM.
In the case of `COc1cc([CH+][N-]NC(=O)c2ccncc2)ccc1Oc1ccc([N+](=O)[O-])cn1` [N-[[3-methoxy-4-[(5-nitro-2-pyridinyl)oxy]phenyl]methylideneamino]-4-pyridinecarboxamide], the EC50 is reported as over 300 µM.
`COc1ccc(-c2nn(-c3ccccc3)cc2CO)cc1OC` [MLS000110763] showed an EC50 of over 300 µM.
With `CC(C)c1ccc(NS(=O)(=O)c2ccc(Cl)nc2)cc1` [6-chloro-N-(4-propan-2-ylphenyl)pyridine-3-sulfonamide] the EC50 was over 300 µM.
`CCOC(=O)c1c(C)[nH]c(C)c1S(=O)(=O)N(C)CC(=O)Nc1ccccc1` [SMR000630545] showed an EC50 of over 300 µM.
`C=CCn1c(=O)c(C(=O)NCc2ccc(Cl)cc2)c(O)c2ccccc21` [N-[(4-chlorophenyl)methyl]-2-hydroxy-4-oxo-1-prop-2-enyl-3-quinolinecarboxamide] gave an EC50 of over 300 µM.
In the case of `Cn1c(SCC(=O)NC2CCCCC2)nnc1-c1ccccn1`, the EC50 is reported as over 300 µM.
For `O=NCc1ccc(Oc2ccccc2Cl)c([N+](=O)[O-])c1` [N-[[4-(2-chlorophenoxy)-3-nitrophenyl]methylidene]hydroxylamine], the EC50 was 12.8 µM.
For `O=c1cc(-c2ccccc2)oc2cc(O)cc(O)c12` [5,7-dihydroxy-2-phenyl-4H-chromen-4-one], the EC50 was over 300 µM.
Work on `O=C(CSc1ccc(F)cc1)Nc1ccc(N2CCOCC2)cc1` [2-(4-fluorophenyl)sulfanyl-N-(4-morpholin-4-ylphenyl)ethanamide] yielded an EC50 of over 300 µM.
With `CCN(CC)Cc1c(C(=O)NN=Cc2ccco2)nnn1-c1nonc1N` [1-(4-amino-1,2,5-oxadiazol-3-yl)-5-(diethylaminomethyl)-N-(2-furanylmethylideneamino)-4-triazolecarboxamide] the EC50 was 119 µM.
In the case of `COc1ccc2cc(C(=O)CS(=O)(=O)c3ccccc3)c(=O)oc2c1` [3-[2-(benzenesulfonyl)acetyl]-7-methoxychromen-2-one], the EC50 is reported as over 300 µM.
With `O=C(CN1C(=O)CCC1=O)Nc1ccc(Br)cc1` [N-(4-bromophenyl)-2-(2,5-dioxo-1-pyrrolidinyl)acetamide] the EC50 was over 300 µM.
`c1csc(CN=Nc2ncnc3nc[nH]c23)c1` [MLS000419130] showed an EC50 of 19.7 µM.
`CCCN(CCC)Cc1c(C(=O)NN=Cc2ccsc2)nnn1-c1nonc1N` [SMR000620321] gave an EC50 of 4.13 µM.
For `COc1cccc(CCNC(=O)c2ccc(C#N)cc2)c1` [MLS000696427], the EC50 was over 300 µM.
Work on `COc1ccc(-c2nnc3ccc(SCc4ccccc4)nn23)cc1` [3-(4-methoxyphenyl)-6-(phenylmethylsulfanyl)-[1,2,4]triazolo[4,3-b]pyridazine] yielded an EC50 of 31.7 µM.
Compound `COc1ccc2occ(C(=O)c3ccccc3)c2c1` [(5-methoxy-1-benzofuran-3-yl)-phenyl-methanone] has an EC50 of 22.9 µM.
For `c1ccc(Nc2nc(NCCN3CCOCC3)nc(Nc3ccccc3)n2)cc1`, the EC50 was over 300 µM.
Work on `Nc1nc(Nc2cccc(F)c2)nc(NCCO)c1[N+](=O)[O-]` [2-[[6-amino-2-(3-fluoroanilino)-5-nitro-4-pyrimidinyl]amino]ethanol] yielded an EC50 of 114 µM.
Work on `CCn1c(S)nnc1-c1ccc([N+](=O)[O-])cc1` [SMR000176027] yielded an EC50 of over 300 µM.
